Data taken from US20140349943A1, “TOPICAL FORMULATIONS OF CHEMERIN C15 PEPTIDES FOR THE TREATMENT OF DERMATOLOGICAL CONDITIONS” (priority 2011, published 2014).
Values joined by “and” are separate entries in the source; they are usually repeats but may differ in a detail not shown here. Equal values may be shown once. Peptide text beside a SMILES is read from it.

What was measured:
[1] = biological target: T1, GPR1 (Homo sapiens, UniProt P46091); test: PathHunter β-Arrestin assay, GPR1, agonist and antagonist mode; type: cell-based; details: for agonist activity, in words / Rank Order / % Max Activity / % Max Inhibition / antagonist activity, in words: GPR1; for agonist activity, in words: FIG. 2A/2B; for Rank Order: agonist; for % Max Activity: agonist mode; for % Max Inhibition: antagonist mode, chemerin at EC80; for antagonist activity, in words: chemerin at 80% maximum signal
T1 construct: host or cells: CHO
T1 sequence (P46091 1-355): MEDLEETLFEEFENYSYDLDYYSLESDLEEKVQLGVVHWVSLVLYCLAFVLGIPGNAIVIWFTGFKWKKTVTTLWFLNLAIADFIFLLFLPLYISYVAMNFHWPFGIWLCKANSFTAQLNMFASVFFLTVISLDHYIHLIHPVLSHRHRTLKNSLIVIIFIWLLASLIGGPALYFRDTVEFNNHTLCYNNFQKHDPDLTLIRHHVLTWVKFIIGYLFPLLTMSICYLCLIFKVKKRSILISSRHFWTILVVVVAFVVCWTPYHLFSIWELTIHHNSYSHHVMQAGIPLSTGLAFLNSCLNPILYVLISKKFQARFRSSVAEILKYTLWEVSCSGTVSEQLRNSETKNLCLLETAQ
Description: The DiscoveRx PathHunter™ eXpress GPCR activity assay was employed to test agonist and antagonist activities of the chemerin peptides against the GPCRs ChemR23 and GPR1. Two assay formats were tested, the PathHunter β-Arrestin assay and the Hit Hunter cAMP Hunter assay.
The PathHunter β-Arrestin assay monitors the activation of a GPCR in a homogenous, non-imaging assay format using a technology developed by DiscoveRx called complementation, which utilizes an enzyme fragment complementation (EFC) assay with β-galactosidase (β-Gal) as the functional reporter. The enzyme is split into two complementary portions expressed as fusion proteins in the cell. The Enzyme Acceptor (EA) is fused to β-Arrestin and the ProLink donor peptide is fused to the GPCR of interest. Upon GPCR stimulation, β-Arrestin is recruited to the receptor for desensitization, bringing the two fragments of β-Gal together and allowing complementation to occur.
The assay involves CHO cell lines that express 1) a GPCR of interest (e.g. ChemR23 or GPR1) that has a fragment of the βgal enzyme fused to the C-terminus of the receptor and 2) a β-arrestin fused to the main β-gal enzyme. When the agonist binds to the receptor, β-arrestin is recruited to the receptor and the β-gal enzyme is complemented by the fragment from the GPCR thus forming a functional β-gal enzyme. A substrate is then added and luminescence is generated to detect β-arrestin recruitment.
The protocol used was a standard protocol employed by DiscoveRx PathHunter™ profiling service. […] Once it was established that the cells were healthy and growing normally, cells were passaged from flasks using cell dissociation reagent and seeded into white walled clear bottom 384-well microplates for compound profiling. For profiling, cells were seeded at a density of 5000 cells per well in a total volume of 20 μL and were allowed to adhere and recover overnight prior to compound addition.
For the agonist assay, intermediate dilution of compound stocks were generated such that 5 μL of 5× compound could be added to each well with a final DMSO concentration of 1% of total volume. For profiling compound in agonist mode, the cells were incubated in the presence of compound at 37° C. for 90 minutes.
For the antagonist assay, agonist dose curves were performed the morning of profiling to determine the EC80 value for the following antagonist testing with compounds. 5 μL of 5× agonist (i.e. chemerin) was added to each well with an equal concentration of vehicle present. EC80 agonist concentration was determined directly from agonist dose curve. For antagonist determination, cells were preincubated with antagonist followed by agonist challenge at the EC80 concentration: 4. 5 μL of 5× compound added to cells and incubated at 37° C. for 30 minutes. 5. 5 μL of 6× EC80 agonist added to cells and incubated at 37° C. for 90 minutes.
Microplates were read following signal generation with a PerkinElmer Envision™ instrument for chemiluminescent signal detection
Dose curves in the presence and absence of compound were plotted using GraphPad Prism or Activity Base. For agonist mode assays, percentage activity was calculated using the following formula: % Activity=100%×(Mean RLU of test sample−mean RLU of vehicle control)/(mean MAX RLU control ligand−mean RLU of vehicle control)). For antagonist mode assays, percentage inhibition was calculated using the following formula: % Inhibition=100%×(1−(Mean RLU of test sample−mean RLU of vehicle control)/(mean RLU of EC80 control−mean RLU of vehicle control)).

[2] = Franz cell skin penetration, C15 in 50% DMSO in water; type: in vitro ADME, human
Excerpt: The objective of the study was to determine whether human C15 peptide would diffuse through in vitro human skin maintained under flow-through conditions in Franz cells with 50% DMSO in water. 50% DMSO is considered an acceptable maximum for penetration enhancement.
The samples used in the study were mouse and human chemerin C15 peptides stored at −20 C°. The skin sample used was human skin obtained from mammoplasty. A frozen sample was stored at −20 C.° for 30 days. A fresh sample was obtained in tissue media and antibiotics and used within 3 days.
1. A 1% solution of mouse C15 in 50% DMSO in water was applied to previously frozen human skin to develop the HPLC method for subsequent tests with human C15. This was done in triplicate. 2. A 2% solution of human C15 in 50% DMSO in water was applied to fresh human skin and epidermis, dermis, and receptor fluid were analyzed for C15.
Skin was rinsed, blotted dry, cut into circular pieces and conditioned in the Franz cell for 2 hours prior to C15 application. Flow-through, water-jacketed diffusion cells that exposed a skin area of 2.54 cm2 were used. The cells were maintained at 37° C., operated under static conditions and stirred at 700 rpm for 24 hr. PBS (pH=7.0) was used as the receptor fluid. C15 solutions in 50% DMSO in water was prepared on the day of the experiments.
400 μl of each C15 solution was pipetted in aliquots of 100 μl onto the skin surface and the diffusion cell sealed with parafilm. Diffusion cells were run in triplicate with a single control consisting of skin treated with vehicle only. Receptor fluid (≈5 mL) was collected at the end of 24 hours and concentrated by evaporation prior to analysis. The skin was blotted dry, tape-stripped three times to remove residual C15 and heat-separated at 50° C. into epidermis and dermis. Epidermis was sonicated in 5% TCA for 10 minutes and the supernatant analyzed. Dermis was minced and homogenized in 5% TCA and the supernatant concentrated and analyzed.
For the mouse C15 experiment only the receptor fluid was analyzed.
A reverse-phase HPLC method was developed to quantify Human C15 (Shimamura et al., 2009). The separation was achieved using a Phenomenex Gemini™ C18 column (Cat. No. 00B-4439-E0, 4.6×50 mm, 3 μm) at 40° C. in the Shimadzu 20A system. The mobile phase was mixed with (A) 0.1% formic in water and (B) 0.1% formic acid in acetonitrile. The separation was conducted using a gradient system of 80% A+20% B to 10% A+90% B (0-3 min) and 10% A+90% B (3-3.5 min) at a flow rate of 0.8 ml/min. The injection volume was 5 μl. The eluent was monitored at 275 nm Human C15 was observed as a single peak in the chromatogram with retention time at about 1.8 min. The quantification of Human C15 was achieved by external standard calibration. […]

[3] = 2% human C15 in 50% DMSO, fresh human skin, % absorbed of the applied dose, listed as C15

Compound	IC50 [1]	agonist activity, in words [1]	Rank Order [1]	% Max Activity [1]	% Max Inhibition [1]	antagonist activity, in words [1]	% C15 in skin compartment, epidermis [2, 3]	% C15 in skin compartment, receptor fluid [2, 3]	penetration through human skin, in words ([2]; in vitro flow-through conditions, 50% DMSO in water)	C15 receptor fluid level ([2]; 1% mouse C15 in 50% DMSO, frozen human skin)
C[C@H](N)C(=O)NCC(=O)N[C@@H](CCC(=O)O)C(=O)N[C@@H](CC(=O)O)C(=O)N1CCC[C@H]1C(=O)N[C@@H](Cc1c[nH]cn1)C(=O)N[C@@H](CO)C(=O)N[C@@H](Cc1ccccc1)C(=O)N[C@@H](Cc1ccc(O)cc1)C(=O)N[C@@H](Cc1ccccc1)C(=O)N1CCC[C@H]1C(=O)NCC(=O)N[C@@H](CCC(N)=O)C(=O)N[C@@H](Cc1ccccc1)C(=O)N[C@@H](C)C(=O)O [C15 (human)] (H-AGEDPHSFYFPGQFA-OH; N-terminus and C-terminus assumed)	> 10 µM	neither human nor mouse chemerin C15 peptides acted as agonists	3	10.6%	0%	neither human nor mouse chemerin C15 peptides acted as antagonists	8.76% and 7.38% and 2.67%	0.02% and 0.09% and 0.01%	does penetrate through human skin	–
C[C@H](N)C(=O)NCC(=O)N[C@@H](CCC(=O)O)C(=O)N[C@@H](CC(=O)O)C(=O)N1CCC[C@H]1C(=O)N[C@@H](Cc1c[nH]cn1)C(=O)N[C@@H](CO)C(=O)N[C@@H](Cc1ccccc1)C(=O)N[C@@H](Cc1ccc(O)cc1)C(=O)N[C@@H](Cc1ccccc1)C(=O)N1CCC[C@H]1C(=O)NCC(=O)N[C@@H](CCC(N)=O)C(=O)N[C@@H](Cc1ccccc1)C(=O)N[C@@H](C)C(=O)N[C@@H](Cc1ccccc1)C(=O)N[C@@H](CO)C(=O)O [C17 (human)] (H-AGEDPHSFYFPGQFAFS-OH; N-terminus and C-terminus assumed)	> 10 µM	exhibited agonist activity	1	80.9%	0%	–	–	–	–	–
CC(C)C[C@H](NC(=O)[C@H](Cc1ccccc1)NC(=O)[C@H](Cc1ccc(O)cc1)NC(=O)CNC(=O)[C@H](Cc1c[nH]cn1)NC(=O)[C@@H]1CCCN1C(=O)[C@H](CC(=O)O)NC(=O)[C@H](CCC(=O)O)NC(=O)CNC(=O)[C@H](C)N)C(=O)N1CCC[C@H]1C(=O)NCC(=O)N[C@@H](CCC(N)=O)C(=O)N[C@@H](Cc1ccccc1)C(=O)N[C@@H](C)C(=O)O [mC15] (H-AGEDPHGYFLPGQFA-OH; N-terminus and C-terminus assumed)	> 10 µM	neither human nor mouse chemerin C15 peptides acted as agonists	4	27.8%	0%	neither human nor mouse chemerin C15 peptides acted as antagonists	–	–	–	0.3%
